Experimental findings from patent US4483794A, “Analogs of neurohypophysial hormones” (Ceskoslovenska akademie ved, priority 1983, dated 1984) are described below.

For orientation: pA2 means the negative logarithm of the molar antagonist concentration that doubles the agonist concentration needed for the same response.

Molecules are shown by their SMILES. *1 amine or outer side, *2 acyl side, *3 side chain or, on linkers, in order; H or OH if unused. Where a SMILES comes first, the peptide text is derived from it. Bridges are numbered along the chain shown (N, C = ends). [ ]: non-standard residue; d: D form. dPhe(4-Et) = CCc1ccc(C[C@@H](N)C(=O)O)cc1; dPhe(4-Me) = Cc1ccc(C[C@@H](N)C(=O)O)cc1; hCys = N[C@@H](CCS)C(=O)O; X1 = O=C(CC[*:2])[*:1]

Experiment [1] has as its system uterotonic activity of oxytocin. Kind of experiment: inhibitory effect toward the uterotonic activity of oxytocin in the in vivo test with a uterus. To be noted: compared with the equipotential dose of [2D-p-ethylphenylalanine] oxytocin. The text has this: uterotonic activity of oxytocin in the in vivo test with a uterus as
compared with the equipotential dose of the compound ([
2D-p-ethylphenylalanine] oxytocin).

In another experiment the target is T1, isolated rat uterus (Rattus norvegicus, UniProt P70536).
T1 construct: isolated rat uterus; from tissue; host or cells: isolated rat uterus
T1 sequence (P70536 1-388): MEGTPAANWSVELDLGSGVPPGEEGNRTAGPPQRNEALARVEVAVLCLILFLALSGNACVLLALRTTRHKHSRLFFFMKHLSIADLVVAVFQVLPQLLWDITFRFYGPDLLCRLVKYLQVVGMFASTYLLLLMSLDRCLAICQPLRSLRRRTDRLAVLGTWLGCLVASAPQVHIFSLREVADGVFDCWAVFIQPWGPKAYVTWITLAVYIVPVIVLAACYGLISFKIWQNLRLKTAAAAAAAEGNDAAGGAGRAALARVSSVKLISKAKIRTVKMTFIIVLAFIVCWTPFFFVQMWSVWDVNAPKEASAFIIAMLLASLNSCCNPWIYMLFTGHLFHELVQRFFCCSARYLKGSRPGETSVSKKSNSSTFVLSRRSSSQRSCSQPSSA
Put plainly: pA2 values as tested with an isolated rat uterus (oxytocin as agonist). In kind it is cell-based. To be noted: negative decadic logarithm of an inhibitory constant. The text has this: Each of the above-identified analogs evidenced strong inhibitory effects. Table I, set forth below, set forth numerical values of the biological activity of these analogs wherein pA2 represents the negative decadic logarithm of an inhibitory constant in accordance with the equation [formula] wherein B is the concentration of the inhibitor in moles per liter, A50 is the concentration of an agonistic compound (oxytocin) which results in 50% of the maximum effect, and A50B is the concentration of an agonistic compound yielding 50% of the maximum effect in the presence of an inhibitor of concentration B (Eggena P., Schwartz I. L., and Walter R.: J. Gen. Physiol. 52, 465 (1968).
pA2 values as tested with an isolated rat uterus

Experiment [2] concerns the target T2, biological effect of vasopressin (blood pressure) (Rattus norvegicus, UniProt P30560).
T2 construct: blood pressure in a despinalized rat; from tissue; host or cells: despinalized rat in vivo (vasculature)
Kind of experiment: suppression of the biological effect of vasopressin, i.e. of blood pressure in a despinalized rat. To be noted: in vivo, blood volume 6.7 ml/100g of rat weight assumed. As for the experimental part:
^(a) the negative decadic logarithm of the analog concentration which
leads to suppression of the biological effect of vasopressin (i.e. of
blood pressure in a despinalized rat) to 50% of the original response; th
blood volume of rat (6.7 ml/100g of rat weight) is assumed in the in vivo
test (Nestor J. J., Ferger M. F., du Vigneaud V.: J. Med. Chem. 18, 284

Experiment [3] has as its system uterotonic and pressor activity of natural hormones. Kind of experiment: inhibitory effects of the analogs toward natural hormones (general statements). To be noted: in words.

T2 sequence (P30560 whole entry): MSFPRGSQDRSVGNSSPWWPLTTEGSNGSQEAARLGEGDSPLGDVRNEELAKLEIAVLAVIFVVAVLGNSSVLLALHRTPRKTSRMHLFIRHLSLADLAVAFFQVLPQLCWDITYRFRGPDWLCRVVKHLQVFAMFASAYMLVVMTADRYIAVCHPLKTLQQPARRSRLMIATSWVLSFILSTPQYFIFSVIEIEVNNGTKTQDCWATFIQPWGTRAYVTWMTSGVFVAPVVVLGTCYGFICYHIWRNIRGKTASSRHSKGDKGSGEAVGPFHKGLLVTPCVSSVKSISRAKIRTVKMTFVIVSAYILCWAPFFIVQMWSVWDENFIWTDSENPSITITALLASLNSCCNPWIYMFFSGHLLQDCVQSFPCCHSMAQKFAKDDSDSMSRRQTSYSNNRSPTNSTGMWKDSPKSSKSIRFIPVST

For the compound `CCc1ccc(C[C@H]2NC(=O)[C@@H](NC(=O)CNC(=O)CNC(=O)CN)CSSC[C@@H](C(=O)N3CCC[C@H]3C(=O)N[C@@H](CC(C)C)C(=O)NCC(N)=O)NC(=O)[C@H](CC(N)=O)NC(=O)[C@H](CCC(N)=O)NC(=O)[C@H]([C@@H](C)CC)NC2=O)cc1` [Ii, N^δ -Glycyl-glycyl-glycyl[2-D-p-ethylphenylalanine]oxytocin] (HELM PEPTIDE1{G.G.G.C.[CCc1ccc(C[C@@H](N[*:1])C(=O)[*:2])cc1].I.Q.N.C.P.L.G.[am]}$PEPTIDE1,PEPTIDE1,4:R3-9:R3$$$V2.0), the “inhibitory effect toward the uterotonic activity of oxytocin, duration” value in experiment [1] was “prolonged inhibitory effect”. This compound had a Kb on isolated rat uterus of 724 nM. Regarding `CCc1ccc(C[C@H]2NC(=O)[C@@H](N)CSSC[C@@H](C(=O)N3CCC[C@H]3C(=O)N[C@@H](CCCCN)C(=O)NCC(N)=O)NC(=O)[C@H](CC(N)=O)NC(=O)[C@H](CCC(N)=O)NC(=O)[C@H](Cc3ccccc3)NC2=O)cc1` [Ih, [2-D-p-Ethylphenylalanine, 8-lysine]vasopressin] (HELM PEPTIDE1{C.[CCc1ccc(C[C@@H](N[*:1])C(=O)[*:2])cc1].F.Q.N.C.P.K.G.[am]}$PEPTIDE1,PEPTIDE1,1:R3-6:R3$$$V2.0), the “pA2 (negative decadic logarithm of the analog concentration which leads to suppression of the biological effect of vasopressin to 50% of the original response)” value in experiment [2] was found to be 7.05. On to `CC[C@H](C)[C@@H]1NC(=O)[C@@H](Cc2ccc(C)cc2)NC(=O)CCSCC[C@@H](C(=O)N2CCC[C@H]2C(=O)N[C@@H](CC(C)C)C(=O)NCC(N)=O)NC(=O)[C@H](CC(N)=O)NC(=O)[C@H](CCC(N)=O)NC1=O` [Ic, [2-D-p-Methylphenylalanine]deamino-6-carba-oxytocin] ([dPhe(4-Me)]IQN[hCys]PLG-NH2; linker N-5 via X1), for which the Kb at isolated rat uterus is 1.86 nM. Regarding `CC[C@H](C)[C@@H]1NC(=O)[C@@H](Cc2ccc(C)cc2)NC(=O)CCSCC[C@@H](C(=O)N2CCC[C@H]2C(=O)N[C@@H](CC(C)C)C(=O)O)NC(=O)[C@H](CC(N)=O)NC(=O)[C@H](CCC(N)=O)NC1=O` [Ij, [2-D-p-methylphenylalanine, 9-desglycinamide]deamino-6-carbaoxytocin] ([dPhe(4-Me)]IQN[hCys]PL-OH; linker N-5 via X1), the inhibitory effect entry in experiment [3] is “retained”. The compound also showed a Kb at isolated rat uterus of 1.58 nM.

At isolated rat uterus, `CCc1ccc(C[C@H]2NC(=O)CCSSC[C@@H](C(=O)N3CCC[C@H]3C(=O)N[C@@H](CC(C)C)C(=O)NCC(N)=O)NC(=O)[C@H](CC(N)=O)NC(=O)[C@H](CCC(N)=O)NC(=O)[C@H]([C@@H](C)CC)NC2=O)cc1` [Ie, [2-D-p-Ethylphenylalanine]deamino-oxytocin] (HELM PEPTIDE1{[O=C(CCS[*:3])[*:2]].[CCc1ccc(C[C@@H](N[*:1])C(=O)[*:2])cc1].I.Q.N.C.P.L.G.[am]}$PEPTIDE1,PEPTIDE1,1:R3-6:R3$$$V2.0) displayed a pA2 of 8.06. At isolated rat uterus, `CC[C@H](C)[C@@H]1NC(=O)[C@@H](Cc2ccccc2)NC(=O)CCSCC[C@@H](C(=O)N2CCC[C@H]2C(=O)N[C@@H](CC(C)C)C(=O)NCC(N)=O)NC(=O)[C@H](CC(N)=O)NC(=O)[C@H](CCC(N)=O)NC1=O` [Ia, [2-D-Phenylalanine]deamino-6-carba-oxytocin] (HELM PEPTIDE1{[dF].I.Q.N.[O=C([C@H](CCS[*:3])N[*:1])[*:2]].P.L.G.[am]}|CHEM1{[O=C(CC[*:2])[*:1]]}$PEPTIDE1,CHEM1,1:R1-1:R1|PEPTIDE1,CHEM1,5:R3-1:R2$$$V2.0) had a Kb of 5.5 nM. The same measure, in the same setting: then `CCc1ccc(C[C@H]2NC(=O)CCSCC[C@@H](C(=O)N3CCC[C@H]3C(=O)N[C@@H](CC(C)C)C(=O)NCC(N)=O)NC(=O)[C@H](CC(N)=O)NC(=O)[C@H](CCC(N)=O)NC(=O)[C@H]([C@@H](C)CC)NC2=O)cc1` [Id, [2-D-p-Ethylphenylalanine]deamino-6-carba-oxytocin] ([dPhe(4-Et)]IQN[hCys]PLG-NH2; linker N-5 via X1), with 1.86 nM; and `CCOc1ccc(C[C@H]2NC(=O)CCSCC[C@@H](C(=O)N3CCC[C@H]3C(=O)N[C@@H](CC(C)C)C(=O)NCC(N)=O)NC(=O)[C@H](CC(N)=O)NC(=O)[C@H](CCC(N)=O)NC(=O)[C@H]([C@@H](C)CC)NC2=O)cc1` [Ib, [2-D-o-Ethyltyrosine]deamino-6-carba-oxytocin] ([dY](Et)IQN[hCys]PLG-NH2; linker N-5 via X1), with 28.8 nM.

With `CCc1ccc(C[C@H]2NC(=O)[C@@H](N)C(C)(C)SSC[C@@H](C(=O)N3CCC[C@H]3C(=O)N[C@@H](CC(C)C)C(=O)NCC(N)=O)NC(=O)[C@H](CC(N)=O)NC(=O)[C@H](CCC(N)=O)NC(=O)[C@H]([C@@H](C)CC)NC2=O)cc1` [Ig, [1-Penicilamine, 2-D-p-ethylphenylalanine]oxytocin] (HELM PEPTIDE1{[Pen].[CCc1ccc(C[C@@H](N[*:1])C(=O)[*:2])cc1].I.Q.N.C.P.L.G.[am]}$PEPTIDE1,PEPTIDE1,1:R3-6:R3$$$V2.0), the Kb on isolated rat uterus was 8.13 nM.

In the case of `CCc1ccc(C[C@H]2NC(=O)[C@@H](N)CSSC[C@@H](C(=O)N3CCC[C@H]3C(=O)N[C@@H](CC(C)C)C(=O)NCC(N)=O)NC(=O)[C@H](CC(N)=O)NC(=O)[C@H](CCC(N)=O)NC(=O)[C@H]([C@@H](C)CC)NC2=O)cc1` [If, [2-D-p-Ethylphenylalanine]oxytocin] (HELM PEPTIDE1{C.[CCc1ccc(C[C@@H](N[*:1])C(=O)[*:2])cc1].I.Q.N.C.P.L.G.[am]}$PEPTIDE1,PEPTIDE1,1:R3-6:R3$$$V2.0), at isolated rat uterus, the Kb was 7.08 nM.
